Laboratory results: article PMC10682951, “Structure-function and rational design of a spider toxin Ssp1a at human voltage-gated sodium channel subtypes” (Frontiers in Pharmacology, 2023)
Bridge positions count the residues as written; N and C are the ends. Peptide text beside a SMILES is read from it.

How the values were obtained:
Format in all cases: cell-based
[1] = target: T1, hNaV1.7 (Homo sapiens, UniProt Q15858); test: Automated whole-cell patch-clamp (QPatch 16X), hNaV1.7; settings: for IC50: HEK293 cells expressing hNaV1.7 + β1 subunit, QPatch 16X, holding −80 mV, step to 0 mV, peptide incubated 2 min, 0.1% BSA, mean, SEM and n (3-9); for Loss (reduction) in potency vs rSsp1a at hNaV1.7: relative to wild type rSsp1a
T1 construct: host or cells: HEK293
Description: (§1) Human embryonic kidney 293 (HEK293) cells stably expressing recombinant hNaV1.2, hNaV1.3 and hNaV1.7 and the β1 auxiliary subunit (Scottish Biomedical Drug Discovery, Glasgow, UK) were cultured in Minimal Essential medium (MEM) (Sigma-Aldrich, MO, United States) supplemented with 10% v/v FBS-New Zealand origin (Assay Matrix), 2 mM L-glutamine and selection antibiotics as per manufacturer’s recommendation. The HEK293 cells heterologously expressing mNaV1.7 and F813G-mNaV1.7 were generously provided by Prof Irina Vetter and were cultured in Minimal Essential medium (MEM) (Sigma-Aldrich, MO, United States) supplemented with 10% v/v FBS-New Zealand origin (Assay Matrix), 2 mM L-glutamine and hygromycin 100 μg/mL.
(§2) NaV channel currents from HEK293 cells stably expressing NaV subtypes and the β1 auxiliary subunit were recorded using an automated whole-cell patch clamp system QPatch 16X (Sophion Bioscience A/S, Ballerup, Denmark). As per the manufacturer’s guidelines, the cells were cultured for 48 h to achieve ∼80% confluency, detached using Detachin (Genlantis) and resuspended to 5 × 10^6 cells/mL in serum free media [CHO-cell SFM (Life Technologies), 25 mM HEPES and 100 U/mL penicillin/streptomycin]. The extracellular solution comprised (in mM) 1 CaCl2, 1 MgCl2, 5 HEPES, 3 KCl, 140 NaCl and 20 TEA-Cl, with the pH adjusted to 7.3 with NaOH. The intracellular solution comprised (in mM) 140 CsF, 1 EGTA, 5 CsOH, 10 HEPES and 10 NaCl, with the pH adjusted to 7.3 with CsOH. The osmolarity of both solutions were adjusted to 320 mOsm with sucrose. Compounds were prepared in extracellular solution containing 0.1% bovine serum albumin (Sigma-Aldrich). To obtain the dose-response curves, cells were maintained at a holding potential −80 mV and Na^+ currents were elicited by […] voltage steps to 0 mV from a −120 mV conditioning pulse applied for […]. Increasing concentrations of the peptide were incubated with the cells at the holding potential for 2 min before the voltage protocol was applied.
(§3) The experimental data were analysed using QPatch Assay software v5.6.4 and GraphPad Prism 7.0 using a four-parameter Hill equation [Y = Bottom + (Top—Bottom)/(1 + 10^(Log IC50—X)* Hillslope)] to fit concentration response curves by non-linear regression analysis and Student’s t-test. Data are presented as means ± standard error of mean (SEM) with number of independent experiments stated and p < 0.05 is considered statistically significant. Statistically insignificant shift in the activity is denoted by “little” while small but statistically significant shift in the activity is denoted by “slight” throughout the manuscript.

[2] = target: T2, hNaV1.3 (Homo sapiens, UniProt Q9NY46); test: Automated whole-cell patch-clamp (QPatch 16X), hNaV1.3; settings: HEK293 cells expressing hNaV1.3 + β1 subunit; QPatch 16X; holding −80 mV, step to 0 mV; peptide incubated 2 min; 0.1% BSA; mean, SEM and n (3-12)
T2 construct: host or cells: HEK293
Description: as §1, §2, §3

[3] = target: T3, hNaV1.2 (Homo sapiens, UniProt Q99250); test: Automated whole-cell patch-clamp (QPatch 16X), hNaV1.2; settings: for IC50: HEK293 cells expressing hNaV1.2 + β1 subunit, QPatch 16X, holding −80 mV, step to 0 mV, peptide incubated 2 min, 0.1% BSA, mean, SEM and n (2-7); for Loss (reduction) in potency vs rSsp1a at hNaV1.2: relative to wild type rSsp1a
T3 construct: host or cells: HEK293
Description: as §1, §2, §3

T3 sequence (Q07699 19-218): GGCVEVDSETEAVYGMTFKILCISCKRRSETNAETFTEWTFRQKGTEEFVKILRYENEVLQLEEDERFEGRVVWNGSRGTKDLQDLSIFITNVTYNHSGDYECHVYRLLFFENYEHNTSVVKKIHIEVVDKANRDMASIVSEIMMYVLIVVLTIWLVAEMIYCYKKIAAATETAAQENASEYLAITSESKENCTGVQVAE
T3 sequence (Q99250 whole entry): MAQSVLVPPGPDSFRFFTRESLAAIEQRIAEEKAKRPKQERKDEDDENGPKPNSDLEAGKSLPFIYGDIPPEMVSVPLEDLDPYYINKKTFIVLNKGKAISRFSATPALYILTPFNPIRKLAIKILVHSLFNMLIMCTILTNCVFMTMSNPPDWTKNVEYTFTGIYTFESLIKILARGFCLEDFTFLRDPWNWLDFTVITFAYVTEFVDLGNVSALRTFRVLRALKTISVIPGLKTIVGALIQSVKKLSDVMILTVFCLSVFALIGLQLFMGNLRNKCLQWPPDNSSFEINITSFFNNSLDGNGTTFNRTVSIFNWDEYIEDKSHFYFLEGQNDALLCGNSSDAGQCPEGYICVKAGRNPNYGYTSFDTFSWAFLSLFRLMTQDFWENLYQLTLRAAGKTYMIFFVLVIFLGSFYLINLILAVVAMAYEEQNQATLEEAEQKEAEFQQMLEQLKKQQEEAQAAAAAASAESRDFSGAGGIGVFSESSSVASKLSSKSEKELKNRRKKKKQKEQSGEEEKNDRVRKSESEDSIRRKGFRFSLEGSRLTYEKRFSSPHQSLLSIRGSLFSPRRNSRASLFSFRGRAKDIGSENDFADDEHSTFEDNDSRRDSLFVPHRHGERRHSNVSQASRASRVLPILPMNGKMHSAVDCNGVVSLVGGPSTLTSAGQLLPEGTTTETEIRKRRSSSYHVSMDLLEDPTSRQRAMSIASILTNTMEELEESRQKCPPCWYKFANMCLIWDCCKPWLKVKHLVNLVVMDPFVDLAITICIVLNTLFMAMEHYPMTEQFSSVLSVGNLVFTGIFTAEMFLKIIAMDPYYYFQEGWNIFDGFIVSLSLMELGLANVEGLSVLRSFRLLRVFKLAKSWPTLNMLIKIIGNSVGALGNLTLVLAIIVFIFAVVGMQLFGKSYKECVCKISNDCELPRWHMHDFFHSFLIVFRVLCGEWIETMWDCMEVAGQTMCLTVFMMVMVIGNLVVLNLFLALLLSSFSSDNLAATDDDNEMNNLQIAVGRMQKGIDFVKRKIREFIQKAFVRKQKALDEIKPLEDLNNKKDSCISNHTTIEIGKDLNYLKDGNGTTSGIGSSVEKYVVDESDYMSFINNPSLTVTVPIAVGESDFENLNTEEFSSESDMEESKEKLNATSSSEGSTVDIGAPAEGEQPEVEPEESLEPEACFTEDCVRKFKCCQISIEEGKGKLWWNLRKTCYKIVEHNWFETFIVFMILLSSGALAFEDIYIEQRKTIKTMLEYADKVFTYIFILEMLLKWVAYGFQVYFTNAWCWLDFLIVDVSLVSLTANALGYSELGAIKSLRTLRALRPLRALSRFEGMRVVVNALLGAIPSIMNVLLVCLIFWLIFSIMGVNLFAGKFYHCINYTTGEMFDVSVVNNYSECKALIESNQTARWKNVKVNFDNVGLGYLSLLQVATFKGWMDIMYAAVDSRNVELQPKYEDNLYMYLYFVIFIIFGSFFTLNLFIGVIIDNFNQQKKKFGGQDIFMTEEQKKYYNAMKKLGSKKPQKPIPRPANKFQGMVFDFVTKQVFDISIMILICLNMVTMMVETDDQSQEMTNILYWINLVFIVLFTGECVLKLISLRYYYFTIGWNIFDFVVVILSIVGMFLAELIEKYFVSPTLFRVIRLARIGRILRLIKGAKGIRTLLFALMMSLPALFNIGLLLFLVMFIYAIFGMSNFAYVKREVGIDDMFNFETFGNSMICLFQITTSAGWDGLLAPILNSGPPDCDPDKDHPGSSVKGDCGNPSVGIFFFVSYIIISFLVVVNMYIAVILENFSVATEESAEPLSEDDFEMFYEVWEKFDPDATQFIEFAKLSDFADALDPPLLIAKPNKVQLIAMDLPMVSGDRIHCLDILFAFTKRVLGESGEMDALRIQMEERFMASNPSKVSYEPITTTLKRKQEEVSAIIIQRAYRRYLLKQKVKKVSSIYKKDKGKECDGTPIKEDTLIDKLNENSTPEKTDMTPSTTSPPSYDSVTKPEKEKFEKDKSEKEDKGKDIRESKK
T2 sequence (Q9NY46 whole entry): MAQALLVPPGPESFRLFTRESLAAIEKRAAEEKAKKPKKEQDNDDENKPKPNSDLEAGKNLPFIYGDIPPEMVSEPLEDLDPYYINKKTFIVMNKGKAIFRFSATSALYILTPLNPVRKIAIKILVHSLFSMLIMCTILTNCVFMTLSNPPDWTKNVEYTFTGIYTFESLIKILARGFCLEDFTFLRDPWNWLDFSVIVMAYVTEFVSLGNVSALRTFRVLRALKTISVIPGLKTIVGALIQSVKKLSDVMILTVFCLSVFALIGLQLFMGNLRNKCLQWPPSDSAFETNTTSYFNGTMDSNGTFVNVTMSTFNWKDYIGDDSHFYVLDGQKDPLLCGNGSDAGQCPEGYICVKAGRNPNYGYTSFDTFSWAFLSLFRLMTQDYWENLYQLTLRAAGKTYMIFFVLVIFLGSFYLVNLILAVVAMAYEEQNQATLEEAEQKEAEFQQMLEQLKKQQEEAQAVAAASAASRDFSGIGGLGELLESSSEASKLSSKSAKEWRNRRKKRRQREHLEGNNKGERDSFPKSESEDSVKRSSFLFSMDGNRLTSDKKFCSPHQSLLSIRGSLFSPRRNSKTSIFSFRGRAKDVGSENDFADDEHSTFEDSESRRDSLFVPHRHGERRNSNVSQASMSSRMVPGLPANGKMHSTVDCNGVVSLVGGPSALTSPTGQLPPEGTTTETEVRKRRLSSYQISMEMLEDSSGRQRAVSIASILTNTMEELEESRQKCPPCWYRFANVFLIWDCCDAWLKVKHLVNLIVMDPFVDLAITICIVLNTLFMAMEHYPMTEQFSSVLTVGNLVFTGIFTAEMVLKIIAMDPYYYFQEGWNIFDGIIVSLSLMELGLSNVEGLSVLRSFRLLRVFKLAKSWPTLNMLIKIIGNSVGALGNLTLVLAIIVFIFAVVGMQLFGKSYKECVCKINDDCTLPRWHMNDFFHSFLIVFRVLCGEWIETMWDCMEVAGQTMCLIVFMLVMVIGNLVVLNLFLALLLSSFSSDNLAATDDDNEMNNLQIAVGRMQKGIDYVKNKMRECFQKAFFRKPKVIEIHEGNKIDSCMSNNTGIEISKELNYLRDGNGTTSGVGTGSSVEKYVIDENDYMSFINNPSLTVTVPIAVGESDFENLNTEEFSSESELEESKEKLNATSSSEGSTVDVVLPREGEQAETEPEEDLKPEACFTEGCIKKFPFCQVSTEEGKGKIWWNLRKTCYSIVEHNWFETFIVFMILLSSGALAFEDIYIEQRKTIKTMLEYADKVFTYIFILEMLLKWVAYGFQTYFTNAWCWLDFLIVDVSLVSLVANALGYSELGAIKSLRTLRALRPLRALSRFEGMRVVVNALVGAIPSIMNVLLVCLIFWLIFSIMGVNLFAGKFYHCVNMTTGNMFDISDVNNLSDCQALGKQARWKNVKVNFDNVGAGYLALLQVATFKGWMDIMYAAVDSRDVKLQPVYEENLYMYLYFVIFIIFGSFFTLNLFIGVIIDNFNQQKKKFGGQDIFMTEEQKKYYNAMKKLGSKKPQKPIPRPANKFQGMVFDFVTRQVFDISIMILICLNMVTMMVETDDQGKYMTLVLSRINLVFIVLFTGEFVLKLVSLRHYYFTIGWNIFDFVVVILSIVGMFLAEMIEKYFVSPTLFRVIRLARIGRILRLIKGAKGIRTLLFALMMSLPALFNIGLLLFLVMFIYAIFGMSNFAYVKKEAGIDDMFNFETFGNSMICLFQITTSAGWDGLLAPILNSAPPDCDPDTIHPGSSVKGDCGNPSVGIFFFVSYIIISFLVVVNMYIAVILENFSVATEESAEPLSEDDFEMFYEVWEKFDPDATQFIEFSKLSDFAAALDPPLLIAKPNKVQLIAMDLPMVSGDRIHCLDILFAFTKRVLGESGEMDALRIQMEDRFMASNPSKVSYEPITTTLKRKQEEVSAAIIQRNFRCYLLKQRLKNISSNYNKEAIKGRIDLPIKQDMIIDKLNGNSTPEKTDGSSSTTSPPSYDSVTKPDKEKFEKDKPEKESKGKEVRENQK
T2 sequence (Q07699 19-218, further chain): as the sequence (Q07699 19-218) above

Row | SMILES | IC50 [1] | IC50 [2] | IC50 [3] | Loss (reduction) in potency vs rSsp1a at hNaV1.7 [1] | Loss (reduction) in potency vs rSsp1a at hNaV1.2 [3]
1 | CC(C)C[C@H](NC(=O)[C@H](CC(=O)O)NC(=O)[C@H](Cc1ccc(O)cc1)NC(=O)[C@H](CCCNC(=N)N)NC(=O)[C@@H]1CSSC[C@@H]2NC(=O)[C@H](CCCCN)NC(=O)[C@H](CC(N)=O)NC(=O)[C@H](CC(N)=O)NC(=O)[C@H](CC(N)=O)NC(=O)[C@@H]3CCCN3C(=O)[C@H](CC(=O)O)NC(=O)[C@@H]3CSSC[C@H](NC(=O)[C@H](C(C)C)NC(=O)[C@H](Cc4ccc(O)cc4)NC(=O)CNC(=O)[C@H](CCCCN)NC(=O)[C@H](CSSC[C@H](NC(=O)[C@H](CC(=O)O)NC(=O)CN)C(=O)N[C@@H](CC(C)C)C(=O)NCC(=O)N[C@@H](Cc4c[nH]c5ccccc45)C(=O)N[C@@H](Cc4ccccc4)C(=O)N[C@@H](CO)C(=O)NCC(=O)N3)NC2=O)C(=O)N[C@@H](Cc2c[nH]cn2)C(=O)N[C@@H](Cc2c[nH]c3ccccc23)C(=O)N[C@@H](CCCCN)C(=O)N[C@@H](Cc2ccc(O)cc2)C(=O)N2CCC[C@H]2C(=O)N[C@@H](Cc2c[nH]c3ccccc23)C(=O)N1)C(=O)O [E18K] | 107 nM | 313 nM | 72 nM |  | 
2 | CC(C)C[C@H](NC(=O)[C@H](CCCCN)NC(=O)[C@H](Cc1ccc(O)cc1)NC(=O)[C@H](CCCNC(=N)N)NC(=O)[C@@H]1CSSC[C@@H]2NC(=O)[C@H](CCCCN)NC(=O)[C@H](CC(N)=O)NC(=O)[C@H](CC(N)=O)NC(=O)[C@H](CC(N)=O)NC(=O)[C@@H]3CCCN3C(=O)[C@H](CC(=O)O)NC(=O)[C@@H]3CSSC[C@H](NC(=O)[C@H](C(C)C)NC(=O)[C@H](Cc4ccc(O)cc4)NC(=O)CNC(=O)[C@H](CCC(=O)O)NC(=O)[C@H](CSSC[C@H](NC(=O)[C@H](CC(=O)O)NC(=O)CN)C(=O)N[C@@H](CC(C)C)C(=O)NCC(=O)N[C@@H](Cc4c[nH]c5ccccc45)C(=O)N[C@@H](Cc4ccccc4)C(=O)N[C@@H](CO)C(=O)NCC(=O)N3)NC2=O)C(=O)N[C@@H](Cc2c[nH]cn2)C(=O)N[C@@H](Cc2c[nH]c3ccccc23)C(=O)N[C@@H](CCCCN)C(=O)N[C@@H](Cc2ccc(O)cc2)C(=O)N2CCC[C@H]2C(=O)N[C@@H](Cc2c[nH]c3ccccc23)C(=O)N1)C(=O)O [D32K] | 86 nM | 98 nM | 75 nM |  | 
3 | CC(C)C[C@H](NC(=O)[C@H](CC(=O)O)NC(=O)[C@H](Cc1ccc(O)cc1)NC(=O)[C@H](CCCNC(=N)N)NC(=O)[C@@H]1CSSC[C@@H]2NC(=O)[C@H](CCCCN)NC(=O)[C@H](CC(N)=O)NC(=O)CNC(=O)[C@H](CC(N)=O)NC(=O)[C@@H]3CCCN3C(=O)[C@H](CC(=O)O)NC(=O)[C@@H]3CSSC[C@H](NC(=O)[C@H](C(C)C)NC(=O)[C@H](Cc4ccc(O)cc4)NC(=O)CNC(=O)[C@H](CCC(=O)O)NC(=O)[C@H](CSSC[C@H](NC(=O)[C@H](CC(=O)O)NC(=O)CN)C(=O)N[C@@H](CC(C)C)C(=O)NCC(=O)N[C@@H](Cc4c[nH]c5ccccc45)C(=O)N[C@@H](Cc4ccccc4)C(=O)N[C@@H](CO)C(=O)NCC(=O)N3)NC2=O)C(=O)N[C@@H](Cc2c[nH]cn2)C(=O)N[C@@H](Cc2c[nH]c3ccccc23)C(=O)N[C@@H](CCCCN)C(=O)N[C@@H](Cc2ccc(O)cc2)C(=O)N2CCC[C@H]2C(=O)N[C@@H](Cc2c[nH]c3ccccc23)C(=O)N1)C(=O)O [N13G] | 287 nM | 287 nM | 280 nM |  | 
4 | CC(C)C[C@H](NC(=O)[C@H](CC(=O)O)NC(=O)[C@H](Cc1ccc(O)cc1)NC(=O)[C@H](CCCNC(=N)N)NC(=O)[C@@H]1CSSC[C@@H]2NC(=O)[C@H](CCCCN)NC(=O)[C@H](CC(N)=O)NC(=O)[C@H](CC(N)=O)NC(=O)[C@H](CC(N)=O)NC(=O)[C@@H]3CCCN3C(=O)[C@H](CC(=O)O)NC(=O)[C@@H]3CSSC[C@H](NC(=O)[C@H](C(C)C)NC(=O)[C@H](Cc4ccc(O)cc4)NC(=O)CNC(=O)[C@H](CCC(=O)O)NC(=O)[C@H](CSSC[C@H](NC(=O)[C@H](CC(=O)O)NC(=O)CN)C(=O)N[C@@H](CC(C)C)C(=O)NCC(=O)N[C@@H](Cc4c[nH]c5ccccc45)C(=O)N[C@@H](Cc4ccccc4)C(=O)N[C@@H](CO)C(=O)NCC(=O)N3)NC2=O)C(=O)N[C@@H](Cc2c[nH]cn2)C(=O)N[C@@H](Cc2c[nH]c3ccccc23)C(=O)N[C@@H](C)C(=O)N[C@@H](Cc2ccc(O)cc2)C(=O)N2CCC[C@H]2C(=O)N[C@@H](Cc2c[nH]c3ccccc23)C(=O)N1)C(=O)O [K25A] (H-GDCLGWFSGCDPNNNKCCEGYVCHWAYPWCRYDL-OH; disulfide 3-18, 10-23, 17-30 (inferred); N-terminus and C-terminus assumed) | > 1000 nM | > 1000 nM | > 1000 nM | ≥ 10 fold | ≥ 10 fold
5 | CC(C)C[C@H](NC(=O)[C@H](Cc1ccc(O)cc1)NC(=O)[C@H](Cc1ccc(O)cc1)NC(=O)[C@H](CCCNC(=N)N)NC(=O)[C@@H]1CSSC[C@@H]2NC(=O)[C@H](CCCCN)NC(=O)[C@H](CC(N)=O)NC(=O)[C@H](CC(N)=O)NC(=O)[C@H](CC(N)=O)NC(=O)[C@@H]3CCCN3C(=O)[C@H](CC(=O)O)NC(=O)[C@@H]3CSSC[C@H](NC(=O)[C@H](C(C)C)NC(=O)[C@H](Cc4ccc(O)cc4)NC(=O)CNC(=O)[C@H](CCC(=O)O)NC(=O)[C@H](CSSC[C@H](NC(=O)CNC(=O)CN)C(=O)N[C@@H](CC(C)C)C(=O)NCC(=O)N[C@@H](Cc4c[nH]c5ccccc45)C(=O)N[C@@H](Cc4ccccc4)C(=O)N[C@@H](CO)C(=O)NCC(=O)N3)NC2=O)C(=O)N[C@@H](Cc2c[nH]cn2)C(=O)N[C@@H](Cc2c[nH]c3ccccc23)C(=O)N[C@@H](CCCCN)C(=O)N[C@@H](Cc2ccc(O)cc2)C(=O)N2CCC[C@H]2C(=O)N[C@@H](Cc2c[nH]c3ccccc23)C(=O)N1)C(=O)O [D1G/D32Y] (H-GGCLGWFSGCDPNNNKCCEGYVCHWKYPWCRYYL-OH; disulfide 3-18, 10-23, 17-30) | 91 nM | 111 nM | 86 nM |  | 
6 | CC(C)C[C@H](NC(=O)[C@H](CC(=O)O)NC(=O)[C@H](Cc1ccc(O)cc1)NC(=O)[C@H](CCCNC(=N)N)NC(=O)[C@@H]1CSSC[C@@H]2NC(=O)[C@H](CCCCN)NC(=O)[C@H](CC(N)=O)NC(=O)[C@H](CC(N)=O)NC(=O)[C@H](CC(N)=O)NC(=O)[C@@H]3CCCN3C(=O)[C@H](CC(=O)O)NC(=O)[C@@H]3CSSC[C@H](NC(=O)[C@H](C(C)C)NC(=O)[C@H](Cc4ccc(O)cc4)NC(=O)CNC(=O)[C@H](CCC(=O)O)NC(=O)[C@H](CSSC[C@H](NC(=O)[C@H](CC(=O)O)NC(=O)CN)C(=O)N[C@@H](CC(C)C)C(=O)NCC(=O)N[C@@H](Cc4c[nH]c5ccccc45)C(=O)N[C@@H](C)C(=O)N[C@@H](CO)C(=O)NCC(=O)N3)NC2=O)C(=O)N[C@@H](Cc2c[nH]cn2)C(=O)N[C@@H](Cc2c[nH]c3ccccc23)C(=O)N[C@@H](CCCCN)C(=O)N[C@@H](Cc2ccc(O)cc2)C(=O)N2CCC[C@H]2C(=O)N[C@@H](Cc2c[nH]c3ccccc23)C(=O)N1)C(=O)O [F6A] (H-GDCLGWASGCDPNNNKCCEGYVCHWKYPWCRYDL-OH; disulfide 3-18, 10-23, 17-30 (inferred); N-terminus and C-terminus assumed) | > 1000 nM | > 1000 nM | > 1000 nM | ≥ 10 fold | ≥ 10 fold
